Source: article PMC8408311 (Diabetologia, 2021)

Tests used:
[1] = system: H9C2 cells; test: 2-NBD-Glucose uptake; assay type: cell-based; conditions: for 2-NBD-Glucose uptake after insulin: 100nM 30min, 20 minutes; for 2-NBD-Glucose uptake after MG: 25μM MG 24h, after 60 min
[2] = RESTORE-2 naive cohort, retrospective propensity score matched study; assay type: in vivo, human; conditions: for Incidence rate of blood glucose <54 mg/dl / Incidence rate of blood glucose ≤70 mg/dl: during 6 months; for FBG change at 6 months / FBG reduction at 6 months / HbA1c reduction from baseline to 12 months: in vivo; for HbA1c change from baseline to 6 months: propensity score matched, 357 per cohort
[3] = system: mouse cardiac endothelial cells (MCECs); test: Methylglyoxal treatment of mouse cardiac endothelial cells; assay type: cell-based
[4] = Sodium-phenylbutyrate 2-week crossover trial in type 2 diabetes
[5] = 2-step hyperinsulinemic-euglycemic clamp

## insulin
[1]; H9C2, 20mM glucose 3 months
  2-NBD-Glucose uptake after insulin: 17%
[1]; H9C2, 20mM glucose 6 months
  2-NBD-Glucose uptake after insulin: 8%
[1]; H9C2, 30mM glucose 3 months
  2-NBD-Glucose uptake after insulin: 15%
[1]; H9C2GLUT4, 20mM glucose 3 months
  2-NBD-Glucose uptake after insulin: 31%
[1]; H9C2GLUT4, 20mM glucose 6 months
  2-NBD-Glucose uptake after insulin: 27%
[1]; H9C2GLUT4, 30mM glucose 3 months
  2-NBD-Glucose uptake after insulin: 43%

## Insulin Degludec 100 U/mL [IDeg-100]
[2]
  Incidence rate of blood glucose <54 mg/dl: 0.02 episodes per patient-months
  Incidence rate of blood glucose ≤70 mg/dl: 0.14 episodes per patient-months
  FBG change at 6 months: -61 mg/dL
  FBG reduction at 6 months: 3.4 mmol/L
  HbA1c reduction from baseline to 12 months: -1.44%
  HbA1c change from baseline to 6 months: -1.69%

## Insulin Glargine 300U/mL [Gla-300]
[2]; 95%CI -0.29;0.27
  Between group mean difference in HbA1c at 6 months, Gla-300 vs IDeg-100: 0.01%
[2]
  Incidence rate of blood glucose <54 mg/dl: 0.02 episodes per patient-months
  Incidence rate of blood glucose ≤70 mg/dl: 0.13 episodes per patient-months
  FBG change at 6 months: -63 mg/dL
  FBG reduction at 6 months: 3.5 mmol/L
  HbA1c reduction from baseline to 12 months: -1.71%
  HbA1c change from baseline to 6 months: -1.70%

## CC(=O)C=O [MG, methylglyoxal]
[3]; 500 μM, Hspa1a/Hspa1b KO cells
  Hspa9 mRNA, mean: 1.52 fold
  Hspa9 protein, mean: 3.17
  Hspd1 mRNA, mean: 1.57 fold
  Hspd1 protein, mean: 3.84
[3]; 500 μM, wild-type cells
  Drp1 mRNA: 1.39 fold
  Hspa1a mRNA, mean: 1.57 fold
  Hspa1a/Hspa1b protein level, mean: 1.56 fold
  Hspa1b mRNA, mean: 1.78 fold
  Hspa9 mRNA, mean: 1.42 fold
  Hspa9 protein, mean: 1.96 fold
  Hspd1 mRNA, mean: 2.11 fold
  Hspd1 protein, mean: 2.35 fold
[3]; Hspa1a/Hspa1b KO cells
  Drp1 mRNA, mean: 2.11
[3]; after MG treatment
  Bnip3, mean: 0.39 fold
  Parkin, mean: 0.45 fold
  Pink1, mean: 0.69 fold
[1]; 20mM glucose, printed 54% vs 44%
  2-NBD-Glucose uptake after MG: 54%
[1]; 30 mM glucose, printed 50% vs 39%
  2-NBD-Glucose uptake after MG: 50%

## O=C(O)CCCc1ccccc1 [NaPB, sodium-phenylbutyrate]
[4]; [5]
  Peripheral insulin sensitivity, higher than placebo: 27%
  ΔRd (insulin-stimulated glucose disposal rate minus baseline): 13.2 ± 1.8 µmol/kg/min
[4]; 4.8 g/m²/day for 2 weeks, LCMS
  Increase of plasma phenylbutyrate levels vs placebo: 5.5 fold
[4]; after 2 weeks
  Fasting glucose: 7.8 ± 0.4 mmol/L
  Fasting plasma isoleucine: 105.2 ± 3.5 µmol/L
  Fasting plasma leucine: 168.7 ± 5.1 µmol/L
  Fasting plasma valine: 275.3 ± 10.3 µmol/L
[4]; clamp
  Peripheral insulin-mediated glucose oxidation: 11.9 ± 0.7 µmol/kg/min
  ΔRER (metabolic flexibility): 0.09 ± 0.01
[4]; skeletal muscle ex vivo
  O2-flux, maximally coupled mitochondrial respiration fueled by pyruvate: 74.0 ± 4.1 pmol/s/mg
